Experimental data taken from patent US8258256B2, “Compositions and methods for the treatment of cancer” (The Johns Hopkins University, priority 2006, dated 2012).
Bridge positions count the residues as written; N and C are the ends. Primed or numbered codes have the meaning given here. Ends that are not written are not given here. Peptide text beside a SMILES is read from it. I, II: the chains in the order shown. * marks the point of attachment. Biotin = O=C1N[C@H]2[C@H](CS[C@H]2CCCCC(=O)*)N1; FITC′ = fluorescein isothiocyanate label

How the values were obtained:
His-PSMA [1] = biological target: T1, His-PSMA (Homo sapiens, UniProt Q04609); assay: PSMA enzymatic assay (NAALADase activity, 3H-NAAG hydrolysis); assay type: biochemical; details: ratio of inhibitory potency, dimeric vs monomeric peptide
T1 construct: made in house; host or cells: Drosophila Schneider's S2 cells, vector pMT/BiP/V5-HisA (pMT-His-PSMA), purified from conditioned media on Ni-NTA
Procedure: FIG. 4 depicts the inhibition of NAALADase activity of PSMA by monomeric and dimeric peptides. His-PSMA hydrolysis of ^3H-NAAG was assayed as described in the methods in the absence or presence of indicated concentration of monomeric or dimeric peptide. After 15 min incubation at 37° C. amount of released 3H-Glu was determined. Percent inhibition is the ratio of amount of 3H-Glu released in presence of peptide compared to control (i.e. His-PSMA only). Data plotted are average of duplicate experiments and best fit line is included.
(§1) PSMA Enzymatic Assay The enzymatic activity assay for PSMA was adapted as previously described by Tiffany et al. (21). PSMA (5 nM) incubated with or without peptides was added to PSMA assay buffer (10 mM CoCl2, 50 mM Tris, pH 7.4). Following a 30 mins incubation at 37° C., N-acetyl-aspartyl-3H glutamate (3H-NAAG) (NEN, Boston, Mass.) was added to final concentration of 25 nM and reactions incubated for 15 mins at 37° C. Data were collected during linear phase of hydrolysis (i.e. less than 20% cleavage of total substrate).

His-PSMA [2] = biological target: T1, His-PSMA; details: substrate hydrolysis by PSMA, reference (21); cited from earlier work
[3] = system: PSMA-positive (LNCaP, CWR22R) human prostate cancer cells; assay: Fluorescent peptide binding to PSMA-positive prostate cancer cells (confocal microscopy); assay type: cell-based
Procedure: FIG. 5 depicts dimeric […] (SEQ ID NO:1) peptide binds selectively to PSMA-producing prostate cancer cells. Attached PSMA-positive (LNCaP, CWR22R) and PSMA-negative (PC-3, DU145) human prostate cancer were prelabeled with Orange Cell Tracker (Invitrogen) at 2.5 μM in RPMI for 30 mins. After washing with Hanks balanced salt solution, cells were incubated with FITC-labeled monomeric (50 μM) or dimeric (5 μM) […] (SEQ ID NO:1) peptide in 1% fetal calf serum containing media for 1 hr. Cells were washed 3 times with PBS and fixed with 1% Formalin for ½ hr at room temperature. Cells were visualized using Zeiss Meta 510 confocal microscope at 20× magnification. Top panels show orange cell tracker labeled cells (rhodamine filter set); middle panels show labeled peptide binding (FITC filter set); bottom panel show overlay of both panels.
Binding of […] (SEQ ID NO:1) peptides to PSMA-expressing cell lines—To analyze peptide binding to membrane bound PSMA, fluorescently labeled peptides were synthesized by coupling FITC to the C-terminus of either the monomeric or dimeric peptide. […] In contrast, cell binding of the dimeric […] (SEQ ID NO:1) peptide could be easily visualized at concentrations as low as 5 μM, FIG. 5. Labeled, dimeric peptide bound to a similar degree to both CWR22R and LNCAP.

PSMA = biological target: T2, PSMA (Homo sapiens, UniProt Q04609); assay: Soluble biotinylated peptide binding to immobilized PSMA or BSA; details: biotinylated peptide incubated with immobilized PSMA (0.625 μgs) or BSA
T2 construct: made in house; host or cells: Drosophila Schneider's S2 cells, vector pMT/BiP/V5-HisA (pMT-His-PSMA), purified from conditioned media on Ni-NTA
Procedure: FIGS. 3A-B depict (A) Soluble […] (Biotin) (SEQ ID NO: 37) peptide binding to BSA and PSMA. Recombinant PSMA (0.625 μgs) and BSA (25 μgs/ml) were immobilized and indicated concentrations of the biotinylated […] (SEQ ID NO:1) peptide were incubated with immobilized PSMA or BSA. […] (B) Comparison of PSMA binding to monomeric (SEQ ID NO: 37) and dimeric (core peptide disclosed as SEQ ID NO: 1) form of the […] (SEQ ID NO:1) peptide. Biotin labeled monomeric and dimeric peptide were immobilized on streptavidin-coated plates then incubated with His-PSMA (100 nM). Results are the mean binding in 4 replicate wells each ±S.D.
Soluble Synthetic […] (SEQ ID NO:1) peptide binds selectively to PSMA—On the basis of the phage binding results, the […] (SEQ ID NO:1) peptide was synthesized with biotin coupled to the C-terminus.

[4] = biological target: T3, full length membrane bound form of PSMA (Homo sapiens, UniProt Q04609); assay: NAAG hydrolysis assay with cell lysates from PSMA-producing LNCaP; assay type: biochemical; details: peptide at 60 μM
T3 construct: endogenous in cells; host or cells: LNCaP cell lysate
Procedure: as §1
[…] (SEQ ID NO:1) peptide inhibits PSMA's enzyme activity—Functionally, PSMA has been classified as a glutamate carboxypeptidase II (25) with activity as both an N-acetylated α-linked acidic dipeptidase (NAALADase) (26) and as a pteroyl poly-γ-glutamyl carboxypeptidase (i.e. folate hydrolase) (27). […] Therefore, the monomeric and dimeric […] (SEQ ID NO:1) peptides were incubated initially with PSMA for 30 mins and then ^3H NAAG substrate was added to prevent any NAAG hydrolysis before the peptide is able to bind to PSMA. Control peptides included the […] (SEQ ID NO: 22) peptide and a short peptide HHWA (SEQ ID NO: 26) containing the apparent consensus motif from the phage display. […] In a second experiment, cell lysates from PSMA-producing LNCaP were used instead of purified recombinant His-PSMA.

T1 sequence (Q04609 44-750 limits assumed): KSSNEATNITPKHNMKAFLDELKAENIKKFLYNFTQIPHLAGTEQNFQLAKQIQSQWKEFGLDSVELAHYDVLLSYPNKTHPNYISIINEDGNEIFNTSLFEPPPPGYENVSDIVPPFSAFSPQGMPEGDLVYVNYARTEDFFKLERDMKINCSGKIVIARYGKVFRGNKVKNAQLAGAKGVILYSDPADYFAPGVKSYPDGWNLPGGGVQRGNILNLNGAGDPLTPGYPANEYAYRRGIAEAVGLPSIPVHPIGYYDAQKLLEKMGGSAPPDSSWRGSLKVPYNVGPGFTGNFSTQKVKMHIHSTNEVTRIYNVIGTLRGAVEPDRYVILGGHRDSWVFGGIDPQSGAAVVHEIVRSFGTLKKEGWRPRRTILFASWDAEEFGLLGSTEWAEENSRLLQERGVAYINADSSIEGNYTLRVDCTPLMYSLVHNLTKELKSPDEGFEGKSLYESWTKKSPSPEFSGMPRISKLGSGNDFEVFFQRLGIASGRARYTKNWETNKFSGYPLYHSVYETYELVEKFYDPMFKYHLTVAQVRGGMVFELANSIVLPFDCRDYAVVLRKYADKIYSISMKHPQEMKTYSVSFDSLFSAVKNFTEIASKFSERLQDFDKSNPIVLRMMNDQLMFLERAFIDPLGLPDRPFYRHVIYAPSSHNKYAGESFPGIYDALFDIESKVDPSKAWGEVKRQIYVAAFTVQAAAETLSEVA
T2 sequence (Q04609 44-750 limits assumed): as above
T3 sequence (Q04609 whole entry): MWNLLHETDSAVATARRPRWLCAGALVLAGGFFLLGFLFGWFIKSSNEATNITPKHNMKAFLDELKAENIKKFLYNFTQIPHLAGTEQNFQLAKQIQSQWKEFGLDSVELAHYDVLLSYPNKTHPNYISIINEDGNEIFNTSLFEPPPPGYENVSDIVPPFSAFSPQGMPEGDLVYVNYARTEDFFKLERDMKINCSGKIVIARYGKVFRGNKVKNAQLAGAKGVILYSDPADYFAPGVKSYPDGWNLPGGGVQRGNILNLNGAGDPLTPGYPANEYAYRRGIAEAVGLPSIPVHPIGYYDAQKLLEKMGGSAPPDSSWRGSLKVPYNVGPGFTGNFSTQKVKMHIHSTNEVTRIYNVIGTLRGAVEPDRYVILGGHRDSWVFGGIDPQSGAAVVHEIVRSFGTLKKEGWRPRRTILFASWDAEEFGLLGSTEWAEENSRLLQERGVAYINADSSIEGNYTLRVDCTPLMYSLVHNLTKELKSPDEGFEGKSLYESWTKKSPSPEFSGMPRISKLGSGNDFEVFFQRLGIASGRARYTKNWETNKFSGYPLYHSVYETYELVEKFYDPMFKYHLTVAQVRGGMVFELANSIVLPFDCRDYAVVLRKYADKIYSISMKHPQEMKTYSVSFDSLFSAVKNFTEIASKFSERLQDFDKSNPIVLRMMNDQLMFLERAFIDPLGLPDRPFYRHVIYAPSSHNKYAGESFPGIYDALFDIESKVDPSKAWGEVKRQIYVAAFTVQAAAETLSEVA

Question: For CC(C)C[C@H](NC(=O)[C@@H](NC(=O)[C@H](C)NC(=O)[C@H](Cc1c[nH]c2ccccc12)NC(=O)[C@H](Cc1c[nH]cn1)NC(=O)[C@H](Cc1c[nH]cn1)NC(=O)[C@H](C)NC(=O)[C@@H](NC(=O)[C@H](CC(=O)O)NC(=O)[C@@H]1CCCN1C(=O)[C@H](CCC(N)=O)NC(=O)[C@@H](N)Cc1c[nH]c2ccccc12)[C@@H](C)O)[C@@H](C)O)C(=O)NCCCC[C@H](NC(=O)[C@H](CC(C)C)NC(=O)[C@@H](NC(=O)[C@H](C)NC(=O)[C@H](Cc1c[nH]c2ccccc12)NC(=O)[C@H](Cc1c[nH]cn1)NC(=O)[C@H](Cc1c[nH]cn1)NC(=O)[C@H](C)NC(=O)[C@@H](NC(=O)[C@H](CC(=O)O)NC(=O)[C@@H]1CCCN1C(=O)[C@H](CCC(N)=O)NC(=O)[C@@H](N)Cc1c[nH]c2ccccc12)[C@@H](C)O)[C@@H](C)O)C(=O)N[C@@H](CCCCNC(=O)CCCC[C@@H]1SC[C@@H]2NC(=O)N[C@@H]21)C(=O)O (I: H-WQPDTAHHWATLKK(Biotin)-OH / II: H-WQPDTAHHWATL; amide I:13-II:C; N-terminus assumed), which “PSMA inhibition of dimer relative to monomer” value (His-PSMA [1]) is on record?
Answer: ~10 fold

Question: For CC(=O)N[C@@H](CC(=O)O)C(=O)N[C@@H](CCC(=O)O)C(=O)O [^3H NAAG, N-acetyl-aspartyl-3H glutamate] (Ac-Asp-Glu-OH), which Km (His-PSMA [2]) is on record?
Answer: 0.43 µM

Question: And the “kcat for PSMA” value (His-PSMA [2])?
Answer: 0.6 s⁻¹

Question: What does the source list for “FITC-labeled monomeric WQPDTAHHWATL peptide: fluorescently labeled peptide made by coupling FITC to the C-terminus of the monomeric peptide (WQPDTAHHWATL-{FITC′})”?
Answer: cell binding above background autofluorescence ([3]; FITC-labeled peptide at 1, 5, 10, 50 μM): could not be observed at any of the tested concentrations; peptide concentration at which cell binding could be visualized ([3]; FITC-labeled peptide tested at 1, 5, 10, 50 μM, 1% fetal bovine serum media, 1 hr): > 50 µM

Question: Which “binding to immobilized PSMA compared to BSA” value (PSMA) does the source give for “QMARIPKRLARHK-biotin [reference compound]” here?
Answer: no specific binding to immobilized PSMA compared to BSA

Question: For WQPDTAHHWATL-OH, which “inhibition of PSMA in LNCaP cell lysates” value [4] is on record?
Answer: inhibited

Question: Which “binding to immobilized PSMA compared to BSA” value (PSMA) does the source give for WQPDTAHHWATLK(Biotin) here?
Answer: significantly higher binding to PSMA at peptide concentrations of 50 μM and 500 μM
